A melting point compilation (Tetko et al.; mined from patent text by program, amines drawn as free bases though some values may be those of a salt)

Compound `Oc1ccc2c(c1)Oc1cc(O)ccc1C2(C(F)(F)F)C(F)(F)F` has a melting point of 209 to 210 °C.
For `CCOC(=O)C=Cc1cc(OCc2ccccc2)ccc1-c1ccc(-c2cccc(C)c2)c(C(F)F)c1`, the melting point was 124 to 126 °C.
Work on `N#Cc1cc(F)c(NC(=O)C(F)(F)F)c(F)c1` yielded a melting point of 134 to 135 °C.
Work on `COC(=O)c1cc(N(C)C)c(C(C)(C)C)c(N(C)C)c1` yielded a melting point of 80 to 82 °C.
In the case of `CCN(CC)C(=O)n1c(SC(F)(F)C(F)F)nc(-c2ccccc2)c1-c1ccccc1`, the melting point is reported as 108 to 109 °C.
In the case of `CC1(C)CC(=O)OC1CC(=O)c1ccc(Cl)cc1` (configuration not stated), the melting point is reported as 76 to 80 °C.
`Cc1cccc(NC(=O)NCC(=O)N(c2ccccc2)C(C(=O)OC(C)(C)C)c2ccc(Cl)cc2)c1` (racemic) showed a melting point of 167 °C.
For `CCCc1ccc2nc(N)sc2c1`, the melting point was 120 to 122 °C.
`CCC(NC(=O)NS(=O)(=O)C=Cc1ccccc1)C(=O)O` (configuration not stated) gave a melting point of 150 to 152 °C.
Work on `O=C1C=C(c2ccc(Cl)c(S(=O)(=O)N3CCCC3)c2)OC1` yielded a melting point of 108 to 111 °C.
For `CCCCOc1cc(C(=O)O)cc(N)c1-c1ccccc1`, the melting point was 122 to 124 °C.
`Cc1cc(O)c2c(c1)CCCC2` gave a melting point of 95 to 96 °C.
`CCOc1ccc2[nH]c3c([N+](=O)[O-])cc([N+](=O)[O-])c(Cl)c3c(=O)c2c1` gave a melting point of 238 to 241 °C.
In the case of `COC(=O)[C@H](CS)NC(=O)[C@@H]1CCC(=S)N1`, the melting point is reported as 177 to 178 °C.
With `C=CCNc1cc(F)ccc1C(=O)O` the melting point was 136 to 139 °C.
Work on `C#CCN1CCN(C2Cc3ccc(C)cc3Sc3ccc(F)cc32)CC1` (configuration not stated) yielded a melting point of 168 to 174 °C.
`CC(C)c1cccc(C(C)C)c1NC(=O)CN1C(=O)N(c2ccc(C#N)cc2)C2(CCCCC2)C1=O` gave a melting point of 280 to 282 °C.
Work on `C=CCOC(=O)N1C[C@@H](S)C[C@H]1CNC(=O)c1ccc(C(=O)NCc2ccc(Cl)c(Cl)c2)cn1` yielded a melting point of 101 to 105 °C.
Compound `Nc1ccccc1C1=NN(c2ccc(Cl)cc2)C(=O)C1` has a melting point of 199 to 201 °C.
Compound `O=C(O)c1ccccc1Oc1ccc(Cl)cc1` has a melting point of 114 to 115 °C.
With `Nc1c(C(=O)O)c(=O)[nH]c2ccccc12` the melting point was greater than 250 °C.
`CO/C(=C\C=C\c1cc2cc(Cl)c(Cl)cc2[nH]1)C(=O)O` gave a melting point of 249 to 250 °C.
For `Fc1ccc(N2CCN(CCCOc3cccc(-c4nnco4)c3)CC2)cc1`, the melting point was 105 to 106 °C.
With `CCCc1nnc(-c2ccc(N(C)C)cc2)n1-c1ccc(OC)cc1` the melting point was 160 °C.
Compound `CCc1ccc(C(=O)Oc2ccc(C(=O)O)cc2)cc1C12CC3CC(CC(C3)C1)C2` has a melting point of 239 to 241 °C.
In the case of `NC1CN(c2c(F)c(F)c3c(=O)c(C(=O)O)cn(C4CC4)c3c2F)CC1CF` (configuration not stated), the melting point is reported as 252 to 253 °C.
`COc1ccc2cc(CN(C)C(=O)c3ccc(Oc4cc(Cl)cc(Cl)c4)o3)ccc2c1Br` showed a melting point of 115 to 117 °C.
Work on `CN(O)C(=O)c1ccc(CCCNc2ccc(O)cc2)cc1` yielded a melting point of 152 to 153 °C.
Work on `COc1ccccc1-n1c(-c2ccc(N(C)C)cc2)nnc1C(C)O` (configuration not stated) yielded a melting point of 145 °C.
`O=C(O)CC1(C(=O)O)CCc2cc3ccccc3n2C1` (configuration not stated) showed a melting point of 185 to 188 °C.
In the case of `CN1CCC(=C(c2ccn(C)c2)c2ncc[nH]2)CC1`, the melting point is reported as 155 °C.
`CS(=O)(=O)NS(=O)(=O)c1ccc(CCCl)cc1` gave a melting point of 149 to 151 °C.
Work on `CC(C)(Sc1cc(C(C)(C)C)c(O)c(C(C)(C)C)c1)Sc1cc(C(C)(C)C)c(OCCC[C@H](O)CO)c(C(C)(C)C)c1` yielded a melting point of 68 to 71 °C.
For `CCCN(CCCCNC(=O)N1CCN(c2ccccc2)CC1)C1CCc2ncsc2C1` (configuration not stated), the melting point was 120 °C.
With `Cn1nc(N)cc1COCc1ccccc1` the melting point was 214 °C.
In the case of `CC(=S)Nc1ccc(-c2nc3ccccc3o2)cc1`, the melting point is reported as 212 to 214 °C.
Work on `CC(C)c1[nH]n(-c2c(Cl)cc(Cl)cc2Cl)c2nc(Cc3ccc(NC(=O)N4CCN(C)CC4)cc3)nc(=O)c1-2` yielded a melting point of 251 to 253 °C.
Work on `CCOC(=O)c1ccc(OCCC2CCN(c3ccc(F)nn3)CC2)cc1` yielded a melting point of 132 °C.
For `CC(C)(C#N)c1cc(Cn2cncn2)cc(C(C)(C)C(N)=O)c1`, the melting point was 51 to 53 °C.
With `COc1cc(-n2nc(Cl)cc2-c2ccc(S(C)(=O)=O)cc2)ccc1[N+](=O)[O-]` the melting point was 170 to 175 °C.
With `CN(C)NC(=O)NC1c2ccccc2Oc2ccccc21` the melting point was 189 to 191 °C.
Compound `COC(=O)C1=C(C)Nc2ccccc2SC1c1ccc(OC)cc1` (configuration not stated) has a melting point of 107 to 110 °C.
In the case of `CCCCOc1ccc(/C=C/c2cc(OC)cc(OC)c2)cc1`, the melting point is reported as 54 to 56 °C.
With `Cn1c(C(CCN2CCC(O)(c3ccccc3)CC2)c2ccc(Cl)c(Cl)c2)cc2ccccc2c1=O` (configuration not stated) the melting point was 100 to 102 °C.
With `O=C(O)c1ccc(-c2nc(-c3ccccn3)cs2)cc1` the melting point was greater than 300 °C.
In the case of `CCC(C(=O)N(C)C)n1cc(Br)cn1` (configuration not stated), the melting point is reported as 97 to 100 °C.
For `Cc1cnc2c(NC(=O)c3c(Cl)cccc3Cl)ccc(C)c2c1Cl`, the melting point was 236 to 240 °C.
For `Cc1ccc(-n2c(-c3ccccc3)ccc2-c2ccccc2)cc1`, the melting point was 207 to 208 °C.
In the case of `CCOC(=O)CNC(=O)n1nc(Oc2c(Cl)cc(C(F)(F)F)cc2Cl)cc1C`, the melting point is reported as 50 to 53 °C.
Work on `Cc1c(-c2cc(CN(C)C)ccc2F)sc2nc(N)[nH]c(=O)c12` yielded a melting point of 230 to 250 °C.
`CCCCCS(=O)(=O)NC(=O)CCc1cc(OC(C)C)nn1Cc1ccc(C(F)(F)F)cc1Cl` gave a melting point of 147 to 149 °C.
`CNC(=S)N1CC=C(C(C)(C)C)CC1` gave a melting point of 76 to 78 °C.
